Experimental data taken from the supplement of paper PMC13386468.
pIC50: −log10 of the molar value.

Experiments:
Assay in all cases: IC50 for competition of protein binding to Kinobeads
Conditions in all cases: assay detail: Kinobeads competition in P. falciparum blood-stage lysate
A0A146LZZ4 = target: A0A146LZZ4
UniProt C0H491 = target: UniProt C0H491
UniProt C6KSV3 = target: UniProt C6KSV3
UniProt C6KSY0 = target: UniProt C6KSY0
UniProt C6KT18 = target: UniProt C6KT18
UniProt C6KT64 = target: UniProt C6KT64
UniProt C6KTB3 = target: UniProt C6KTB3
UniProt O77358 = target: UniProt O77358
UniProt O96210 = target: UniProt O96210
UniProt O96271 = target: UniProt O96271
UniProt O97266 = target: UniProt O97266
UniProt Q6ZLZ9 = target: UniProt Q6ZLZ9
UniProt Q8I1N8 = target: UniProt Q8I1N8
UniProt Q8I1Q5 = target: UniProt Q8I1Q5
UniProt Q8I1U8 = target: UniProt Q8I1U8
UniProt Q8I3T1 = target: UniProt Q8I3T1
UniProt Q8I3V8 = target: UniProt Q8I3V8
UniProt Q8I3W0 = target: UniProt Q8I3W0
UniProt Q8I526 = target: UniProt Q8I526
UniProt Q8I5A4 = target: UniProt Q8I5A4
UniProt Q8I5C5 = target: UniProt Q8I5C5
UniProt Q8I5H4 = target: UniProt Q8I5H4
UniProt Q8I5R7 = target: UniProt Q8I5R7
UniProt Q8I5R7, sequence (Q8I5R7 whole entry): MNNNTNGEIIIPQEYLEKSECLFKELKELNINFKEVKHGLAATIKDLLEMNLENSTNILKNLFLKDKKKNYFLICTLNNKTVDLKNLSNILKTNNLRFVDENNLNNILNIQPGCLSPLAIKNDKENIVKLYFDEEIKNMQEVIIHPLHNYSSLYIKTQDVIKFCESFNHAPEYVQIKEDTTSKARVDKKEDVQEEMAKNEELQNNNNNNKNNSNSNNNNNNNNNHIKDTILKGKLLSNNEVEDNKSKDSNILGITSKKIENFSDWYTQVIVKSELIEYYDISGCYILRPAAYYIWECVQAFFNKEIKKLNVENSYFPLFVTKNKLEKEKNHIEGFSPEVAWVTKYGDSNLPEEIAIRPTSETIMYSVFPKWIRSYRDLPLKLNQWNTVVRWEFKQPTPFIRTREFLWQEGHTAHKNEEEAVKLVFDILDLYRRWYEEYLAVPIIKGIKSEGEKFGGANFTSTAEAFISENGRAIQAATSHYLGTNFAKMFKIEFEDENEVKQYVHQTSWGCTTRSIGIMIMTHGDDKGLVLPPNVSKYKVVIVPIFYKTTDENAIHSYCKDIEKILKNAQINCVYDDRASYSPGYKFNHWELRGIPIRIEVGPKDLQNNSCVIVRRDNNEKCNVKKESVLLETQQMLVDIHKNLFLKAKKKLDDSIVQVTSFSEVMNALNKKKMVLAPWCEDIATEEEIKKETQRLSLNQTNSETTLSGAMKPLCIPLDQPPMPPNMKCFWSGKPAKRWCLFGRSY

UniProt Q8I5T4 = target: UniProt Q8I5T4
UniProt Q8I6T3 = target: UniProt Q8I6T3
UniProt Q8I719 = target: UniProt Q8I719
UniProt Q8I719, sequence (Q8I719 whole entry, looked up): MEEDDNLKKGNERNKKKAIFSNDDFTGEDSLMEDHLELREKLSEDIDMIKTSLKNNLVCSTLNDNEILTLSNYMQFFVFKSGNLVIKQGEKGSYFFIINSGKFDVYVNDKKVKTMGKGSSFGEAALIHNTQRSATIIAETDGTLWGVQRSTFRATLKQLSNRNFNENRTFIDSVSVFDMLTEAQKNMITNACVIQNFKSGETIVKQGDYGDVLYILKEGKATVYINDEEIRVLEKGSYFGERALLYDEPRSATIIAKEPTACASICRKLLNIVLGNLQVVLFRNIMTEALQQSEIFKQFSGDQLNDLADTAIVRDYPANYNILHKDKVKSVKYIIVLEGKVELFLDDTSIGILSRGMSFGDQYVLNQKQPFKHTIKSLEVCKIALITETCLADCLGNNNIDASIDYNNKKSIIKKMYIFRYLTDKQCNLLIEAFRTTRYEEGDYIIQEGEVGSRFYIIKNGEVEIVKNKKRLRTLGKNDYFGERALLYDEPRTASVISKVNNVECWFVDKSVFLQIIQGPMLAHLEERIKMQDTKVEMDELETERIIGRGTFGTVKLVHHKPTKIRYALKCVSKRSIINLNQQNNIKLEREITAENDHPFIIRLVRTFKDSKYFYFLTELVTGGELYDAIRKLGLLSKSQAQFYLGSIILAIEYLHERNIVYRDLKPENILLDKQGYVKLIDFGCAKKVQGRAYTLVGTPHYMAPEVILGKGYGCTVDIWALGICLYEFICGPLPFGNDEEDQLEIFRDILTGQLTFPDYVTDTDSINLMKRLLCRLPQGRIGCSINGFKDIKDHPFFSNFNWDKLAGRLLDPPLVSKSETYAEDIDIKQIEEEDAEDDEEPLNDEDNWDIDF

UniProt Q8IAW0 = target: UniProt Q8IAW0
UniProt Q8IB60 = target: UniProt Q8IB60
UniProt Q8ID50 = target: UniProt Q8ID50
UniProt Q8IDG9 = target: UniProt Q8IDG9
UniProt Q8IDV1 = target: UniProt Q8IDV1
UniProt Q8IDZ6 = target: UniProt Q8IDZ6
UniProt Q8II01 = target: UniProt Q8II01
UniProt Q8II27 = target: UniProt Q8II27
UniProt Q8IIA2 = target: UniProt Q8IIA2
UniProt Q8IIH4 = target: UniProt Q8IIH4
UniProt Q8IIJ4 = target: UniProt Q8IIJ4
UniProt Q8IIK2 = target: UniProt Q8IIK2
UniProt Q8IIM5 = target: UniProt Q8IIM5
UniProt Q8IIQ6 = target: UniProt Q8IIQ6
UniProt Q8IIW2 = target: UniProt Q8IIW2
UniProt Q8IJD4 = target: UniProt Q8IJD4
UniProt Q8IJD4, sequence (Q8IJD4 whole entry): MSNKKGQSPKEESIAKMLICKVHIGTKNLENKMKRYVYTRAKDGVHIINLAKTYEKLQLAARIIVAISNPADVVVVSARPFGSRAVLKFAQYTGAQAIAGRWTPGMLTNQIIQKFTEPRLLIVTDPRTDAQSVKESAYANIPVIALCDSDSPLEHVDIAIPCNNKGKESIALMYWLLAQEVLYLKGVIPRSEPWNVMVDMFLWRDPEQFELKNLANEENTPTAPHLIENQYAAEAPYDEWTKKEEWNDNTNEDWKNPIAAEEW

UniProt Q8IJN7 = target: UniProt Q8IJN7
UniProt Q8IJN7, sequence (Q8IJN7 whole entry): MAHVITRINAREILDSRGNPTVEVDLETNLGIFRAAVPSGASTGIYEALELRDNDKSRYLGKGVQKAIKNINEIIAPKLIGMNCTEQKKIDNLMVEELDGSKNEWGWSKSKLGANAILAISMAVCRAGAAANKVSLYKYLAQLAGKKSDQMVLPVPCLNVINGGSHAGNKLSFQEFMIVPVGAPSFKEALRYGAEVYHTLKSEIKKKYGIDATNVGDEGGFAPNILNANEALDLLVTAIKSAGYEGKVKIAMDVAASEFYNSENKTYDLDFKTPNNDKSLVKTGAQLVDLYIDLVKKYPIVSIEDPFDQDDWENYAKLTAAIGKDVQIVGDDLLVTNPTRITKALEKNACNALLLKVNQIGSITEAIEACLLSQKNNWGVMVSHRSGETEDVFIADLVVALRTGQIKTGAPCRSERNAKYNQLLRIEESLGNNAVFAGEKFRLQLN

UniProt Q8IJW0 = target: UniProt Q8IJW0
UniProt Q8IKF0 = target: UniProt Q8IKF0
UniProt Q8IKV6 = target: UniProt Q8IKV6
UniProt Q8ILT5 = target: UniProt Q8ILT5
UniProt Q8ILT5, sequence (Q8ILT5 whole entry): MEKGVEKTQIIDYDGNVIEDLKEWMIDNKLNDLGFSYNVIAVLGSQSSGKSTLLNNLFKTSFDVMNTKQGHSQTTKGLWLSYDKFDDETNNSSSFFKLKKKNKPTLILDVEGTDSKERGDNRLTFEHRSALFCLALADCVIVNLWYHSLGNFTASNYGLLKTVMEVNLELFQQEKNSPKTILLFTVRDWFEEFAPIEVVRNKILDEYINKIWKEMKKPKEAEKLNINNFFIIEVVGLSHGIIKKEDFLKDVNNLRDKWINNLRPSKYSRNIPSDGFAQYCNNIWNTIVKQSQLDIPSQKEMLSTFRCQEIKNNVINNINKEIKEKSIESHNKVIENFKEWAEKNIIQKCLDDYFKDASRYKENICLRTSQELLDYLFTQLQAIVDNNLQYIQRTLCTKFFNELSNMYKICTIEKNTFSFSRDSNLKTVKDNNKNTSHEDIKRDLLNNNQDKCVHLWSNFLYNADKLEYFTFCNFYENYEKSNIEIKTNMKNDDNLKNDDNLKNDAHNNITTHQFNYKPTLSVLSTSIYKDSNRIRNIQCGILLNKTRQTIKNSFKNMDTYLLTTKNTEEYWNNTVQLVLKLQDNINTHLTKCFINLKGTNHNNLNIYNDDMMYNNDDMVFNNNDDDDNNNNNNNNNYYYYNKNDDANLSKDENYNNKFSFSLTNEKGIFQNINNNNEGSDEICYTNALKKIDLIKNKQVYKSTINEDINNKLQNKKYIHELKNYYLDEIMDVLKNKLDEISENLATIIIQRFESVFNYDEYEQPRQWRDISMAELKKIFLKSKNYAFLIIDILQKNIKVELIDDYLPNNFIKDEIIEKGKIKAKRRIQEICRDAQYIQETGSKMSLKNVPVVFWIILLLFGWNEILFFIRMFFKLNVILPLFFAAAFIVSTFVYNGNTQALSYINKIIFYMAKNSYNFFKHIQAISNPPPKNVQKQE

UniProt Q8ILX1 = target: UniProt Q8ILX1
UniProt Q9TY94 = target: UniProt Q9TY94
UniProt Q9U0I0 = target: UniProt Q9U0I0
UniProt Q9U0K8 = target: UniProt Q9U0K8
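Note: native unpurified kinases from lysate captured on beads bearing immobilized kinase inhibitors, with bead-bound kinases quantified by mass spectrometry across compound doses.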

Work on `O=c1[nH]c2ccc(Cl)cc2c(NC2CN3CCC2CC3)c1-c1nc2ccccc2[nH]1` (stereo unspecified) [CHIR-124] yielded a pIC50 (A0A146LZZ4) of less than 4.70, a pIC50 (UniProt C0H491) of less than 4.70 and a pIC50 (UniProt C6KSV3) of less than 4.70. It also gave a pIC50 (UniProt C6KSY0) of less than 4.70, a pIC50 (UniProt C6KT18) of less than 4.70 and a pIC50 (UniProt C6KT64) of less than 4.70. For the same compound, the pIC50 (UniProt C6KTB3) was less than 4.70, the pIC50 (UniProt O77358) was less than 4.70 and the pIC50 (UniProt O96210) was less than 4.70. It also gave a pIC50 (UniProt O96271) of less than 4.70, a pIC50 (UniProt O97266) of less than 4.70 and a pIC50 (UniProt Q6ZLZ9) of less than 4.70. It also gave a pIC50 (UniProt Q8I1N8) of less than 4.70, a pIC50 (UniProt Q8I1Q5) of less than 4.70 and a pIC50 (UniProt Q8I1U8) of less than 4.70. The pIC50 (UniProt Q8I3T1) was less than 4.70, the pIC50 (UniProt Q8I3V8) was less than 4.70 and the pIC50 (UniProt Q8I3W0) was less than 4.70. For the same compound, the pIC50 (UniProt Q8I526) was less than 4.70, the pIC50 (UniProt Q8I5A4) was less than 4.70 and the pIC50 (UniProt Q8I5C5) was less than 4.70. For the same compound, the pIC50 (UniProt Q8I5H4) was less than 4.70, the pIC50 (UniProt Q8I5R7) was less than 4.70 and the pIC50 (UniProt Q8I5T4) was less than 4.70. The pIC50 (UniProt Q8I6T3) was less than 4.70, the pIC50 (UniProt Q8I719) was less than 4.70 and the pIC50 (UniProt Q8IAW0) was less than 4.70. It also gave a pIC50 (UniProt Q8IB60) of less than 4.70, a pIC50 (UniProt Q8ID50) of less than 4.70 and a pIC50 (UniProt Q8IDG9) of less than 4.70. For the same compound, the pIC50 (UniProt Q8IDV1) was less than 4.70, the pIC50 (UniProt Q8IDZ6) was less than 4.70 and the pIC50 (UniProt Q8II01) was less than 4.70. It also gave a pIC50 (UniProt Q8II27) of less than 4.70, a pIC50 (UniProt Q8IIA2) of less than 4.70 and a pIC50 (UniProt Q8IIH4) of less than 4.70. For the same compound, the pIC50 (UniProt Q8IIJ4) was less than 4.70, the pIC50 (UniProt Q8IIK2) was less than 4.70 and the pIC50 (UniProt Q8IIM5) was less than 4.70. The pIC50 (UniProt Q8IIQ6) was less than 4.70, the pIC50 (UniProt Q8IIW2) was less than 4.70 and the pIC50 (UniProt Q8IJD4) was less than 4.70. It also gave a pIC50 (UniProt Q8IJN7) of less than 4.70, a pIC50 (UniProt Q8IJW0) of less than 4.70 and a pIC50 (UniProt Q8IKF0) of less than 4.70. The pIC50 (UniProt Q8IKV6) was less than 4.70, the pIC50 (UniProt Q8ILT5) was less than 4.70 and the pIC50 (UniProt Q8ILX1) was less than 4.70. It also gave a pIC50 (UniProt Q9TY94) of less than 4.70, a pIC50 (UniProt Q9U0I0) of less than 4.70 and a pIC50 (UniProt Q9U0K8) of 5.28.
